Reference: BindingDB's records for PubMed 11454901 (Shionogi, 2001)

Biological target: T1, Prostaglandin-H2 D-isomerase (Sus scrofa, UniProt Q29095)
T1 sequence (Q29095 whole entry): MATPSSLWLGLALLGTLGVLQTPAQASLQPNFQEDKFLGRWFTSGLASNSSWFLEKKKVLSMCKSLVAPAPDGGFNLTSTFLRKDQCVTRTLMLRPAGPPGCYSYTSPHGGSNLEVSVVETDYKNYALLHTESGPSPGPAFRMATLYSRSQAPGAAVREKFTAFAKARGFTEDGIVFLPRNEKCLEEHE

| Structure (SMILES) | Ki [nM] |
| --- | --- |
| O=C(O)CCC/C=C\C[C@@H]1C(NS(=O)(=O)c2ccccc2)C2CC[C@@H]1C2 (single isomer, unassigned; (+)) [S 145] | 0.49 |
| CC1(C)[C@H]2C[C@H](C/C=C\CCCC(=O)O)[C@@H](NC(=O)c3csc4ccc(O)cc34)[C@@H]1C2 | 193 |
